T1: E. coli RodA-PBP2 fusion (PBP2 TP domain) (Escherichia coli, UniProt P0AD65)
T1 construct: gene mrdA; with Peptidoglycan glycosyltransferase MrdB
T1 sequence (P0AD65 1-633): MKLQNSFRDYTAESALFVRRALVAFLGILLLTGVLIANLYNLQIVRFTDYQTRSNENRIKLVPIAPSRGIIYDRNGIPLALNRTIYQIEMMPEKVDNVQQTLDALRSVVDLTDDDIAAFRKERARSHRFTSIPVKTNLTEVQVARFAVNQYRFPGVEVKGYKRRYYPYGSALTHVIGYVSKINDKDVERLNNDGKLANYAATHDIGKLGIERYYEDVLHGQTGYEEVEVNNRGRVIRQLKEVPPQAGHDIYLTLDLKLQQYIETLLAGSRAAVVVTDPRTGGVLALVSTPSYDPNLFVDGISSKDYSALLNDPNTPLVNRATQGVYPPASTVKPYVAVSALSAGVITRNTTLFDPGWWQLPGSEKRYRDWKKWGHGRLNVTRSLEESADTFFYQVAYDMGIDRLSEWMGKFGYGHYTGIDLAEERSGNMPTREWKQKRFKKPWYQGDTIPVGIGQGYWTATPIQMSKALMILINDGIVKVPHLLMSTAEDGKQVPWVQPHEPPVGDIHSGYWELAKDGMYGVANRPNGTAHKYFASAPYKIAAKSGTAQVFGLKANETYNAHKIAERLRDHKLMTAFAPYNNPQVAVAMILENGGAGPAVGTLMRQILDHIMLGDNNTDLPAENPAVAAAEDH
T1 sequence (P0ABG7 1-370 partner): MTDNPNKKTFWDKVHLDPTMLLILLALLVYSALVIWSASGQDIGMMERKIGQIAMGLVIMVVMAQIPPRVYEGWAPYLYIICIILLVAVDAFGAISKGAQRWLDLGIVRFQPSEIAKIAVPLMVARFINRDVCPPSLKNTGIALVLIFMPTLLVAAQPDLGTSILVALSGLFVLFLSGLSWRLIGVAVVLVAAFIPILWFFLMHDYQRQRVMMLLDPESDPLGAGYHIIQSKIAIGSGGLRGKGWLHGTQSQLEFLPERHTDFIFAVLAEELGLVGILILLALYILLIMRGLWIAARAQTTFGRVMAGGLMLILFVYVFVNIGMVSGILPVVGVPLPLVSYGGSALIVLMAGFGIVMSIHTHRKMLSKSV

T2: E. coli PBP2 (Escherichia coli str. K-12 substr. …, UniProt P0AD65 1-633)
T2 construct: K-12 substr; MG1655, UniProt P0AD65; residues 10-343, 401-430, 457-540 and 569-612 built in the map; PBP2 Gln99 is residue 476 in the fusion; the poly-histidine tag of the fusion is written on m1; also called transpeptidase (TP); source: E. coli BL21(DE3) pLysS, purified (Ni-NTA, SEC), reconstituted in POPG / MSP1E3D1 nanodiscs
T2 sequence (looked up): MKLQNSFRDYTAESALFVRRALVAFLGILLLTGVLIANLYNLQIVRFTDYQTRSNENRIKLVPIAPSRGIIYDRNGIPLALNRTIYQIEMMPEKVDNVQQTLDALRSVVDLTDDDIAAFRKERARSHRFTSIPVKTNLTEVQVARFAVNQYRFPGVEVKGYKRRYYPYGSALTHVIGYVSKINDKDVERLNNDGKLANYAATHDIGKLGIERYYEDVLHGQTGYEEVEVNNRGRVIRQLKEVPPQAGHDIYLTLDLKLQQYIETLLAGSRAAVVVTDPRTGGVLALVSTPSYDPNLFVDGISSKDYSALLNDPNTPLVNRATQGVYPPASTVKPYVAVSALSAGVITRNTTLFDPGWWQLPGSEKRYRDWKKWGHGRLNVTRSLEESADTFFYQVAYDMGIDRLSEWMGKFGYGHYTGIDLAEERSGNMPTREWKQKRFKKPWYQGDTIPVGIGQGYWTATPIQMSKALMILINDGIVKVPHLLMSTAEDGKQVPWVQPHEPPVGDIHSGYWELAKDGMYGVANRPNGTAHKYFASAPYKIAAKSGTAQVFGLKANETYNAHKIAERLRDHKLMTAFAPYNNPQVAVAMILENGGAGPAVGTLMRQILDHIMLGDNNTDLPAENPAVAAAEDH


Legend:
[1] = target: T1, E. coli RodA-PBP2 fusion (PBP2 TP domain); experiment: fluorescent bocillin labelling, SDS-PAGE; type: binding; details: covalent; TP active site of PBP2; labelled compound; 15 min
[2] = target: T2, E. coli PBP2; experiment: cryo-EM structure; single-particle cryo-EM of the RodA-PBP2 fusion (one chain, TSGSGSGS linker) in POPG / MSP1E3D1 nanodiscs; 20 mM HEPES pH 7, 150 mM NaCl, 1 mM TCEP; 0.66 mg/ml (5.9 uM); details: both partners purified

binding result [2]	Molecule	fluorescent bocillin labelling, SDS-PAGE [1]
	Cc1cc(C)n2c1C=C1C=CC(CCC(=O)Nc3ccc(OCC(=O)N[C@@H]4C(=O)N5[C@@H]4SC(C)(C)[C@@H]5C(=O)O)cc3)=[N+]1[B-]2(F)F [bocillin]	The TP domain binds (and is covalently modified by) a fluorescent penicillin mimic bocillin
binds	E. coli RodA (enzyme, UniProt P0ABG7 1-370, looked up, RodA, Escherichia coli str; K-12 substr; MG1655; UniProt ID printed as '0ABG7'; residues 9-93 and 109-364 built in the map; They are written as two molecules for the pair row; No TEV cleavage is described; also called SEDS glycosyltransferase (GT); RodA part of the RodA-PBP2 fusion; source: E. coli BL21(DE3) pLysS, purified (Ni-NTA, SEC), reconstituted in POPG / MSP1E3D1 nanodiscs) MTDNPNKKTFWDKVHLDPTMLLILLALLVYSALVIWSASGQDIGMMERKIGQIAMGLVIMVVMAQIPPRVYEGWAPYLYIICIILLVAVDAFGAISKGAQRWLDLGIVRFQPSEIAKIAVPLMVARFINRDVCPPSLKNTGIALVLIFMPTLLVAAQPDLGTSILVALSGLFVLFLSGLSWRLIGVAVVLVAAFIPILWFFLMHDYQRQRVMMLLDPESDPLGAGYHIIQSKIAIGSGGLRGKGWLHGTQSQLEFLPERHTDFIFAVLAEELGLVGILILLALYILLIMRGLWIAARAQTTFGRVMAGGLMLILFVYVFVNIGMVSGILPVVGVPLPLVSYGGSALIVLMAGFGIVMSIHTHRKMLSKSV	

From article PMC10449877, “Structural basis of peptidoglycan synthesis by E. coli RodA-PBP2 complex” (Nature Communications, 2023)
